The text below walks through data of patent US5698222A, “Calcium supplement” (Abbott Laboratories, priority 1995, dated 1997).

Where a name gives a salt, the structure may show the parent alone. Read-outs that look alike come from different tables or passages of the source.

Data set [1] can be described thus: titratable acidity of calcium sources. In kind it is physicochemical. The conditions noted are these: pH 3.5 raised to pH 8.3, 40 g sample. An excerpt:
Acidity is desired in the liquid nutritional product of the present invention for several reasons such as: to maintain the calcium salt solubility, to complement flavor, to control microbial growth, and to enhance the role of preservatives, specifically potassium benzoate or sodium benzoate. On the other hand, too much acidity can result in increased tartness and sourness that make the product undesirable from a sensory point of view. […] Titratable acidity is an indication of the total acidity of a beverage.

For data set [2] the following is noted: without aluminum-containing drugs; cited from earlier work.
The conditions of data set [3]: rats, three weeks, as compared to a control; cited from earlier work.
The conditions of data set [4]: cited from earlier work.
For data set [5] the following is noted: values from Whiting article; cited from earlier work.
The conditions of data set [6]: large amounts; cited from earlier work.
How the values of data set [7] were obtained: In this evaluation solubility was determined by a visual examination.
The conditions of data set [8]: low birth weight infants; cited from earlier work.
For data set [9] the following is noted: piglets; cited from earlier work.

For the compound `O=C(O)CC(O)(CC(=O)O)C(=O)O` [Calcium Citrate, calcium citrate], in [1], the Titratable acidity is reported as 57.5 mL of 0.1N NaOH. Also, the aluminum toxicity risk entry in data set [2] is listed as “does not pose a risk of aluminum toxicity”. Further, the relative calcium bioavailability in data set [3] was 110%.
Regarding `O=P(O)(O)OCC(O)CO` (centres unmarked) [glycerophosphate], the pKf in data set [4] is given as 6.1.
Take `CC(O)C(=O)O` (centres unmarked) [Calcium Lactate, calcium lactate]: in [1], the Titratable acidity is recorded as 47.1 mL of 0.1N NaOH.
Consider `O=P([O-])([O-])[O-].O=P([O-])([O-])[O-].[Ca+2].[Ca+2].[Ca+2]` [Tricalcium Phosphate, tricalcium phosphate], for which, in [1], the Titratable acidity is given as 48.6 mL of 0.1N NaOH. For the same compound, the relative calcium bioavailability in [3] is 110%.
Take `O=C(O)O` [CaCO3 (from Dolomite)]: in data set [5], the “Aluminum Content” value was 171-315 parts per million (ppm).
Turning to `O=C(O)O` [Calcium Carbonate, calcium carbonate], the Titratable acidity in data set [1] was 61.4 mL of 0.1N NaOH. Also, the adverse effects entry in data set [6] was “can lead to constipation and abdominal distention”.
Regarding `O=C(O)[C@H](O)[C@@H](O)[C@H](O)[C@H](O)CO` [D-Gluconic-Acid, D-gluconic acid (hemicalcium salt)], the “solubility at time of manufacture” value in [7] (pH 3.5) is “soluble”. Further, in data set [7] (pH 5), the “solubility at 1 month” value was “partially Soluble” and the “solubility at time of manufacture” value is listed as “soluble”.
In the case of calcium citrate malate, in data set [1], the Titratable acidity is recorded as 53.2 mL of 0.1N NaOH.
For the compound `[Ca+2].[Cl-].[Cl-]` [Calcium Chloride, calcium chloride], in data set [1], the Titratable acidity is 0.7 mL of 0.1N NaOH.
Turning to `O=C(O)O` [CaCO3 (from fossil shell)], in [5], the “Aluminum Content” value was 4,400 parts per million (ppm).
Take `[Ca+2].[OH-].[OH-]` [Calcium Hydroxide, calcium hydroxide]: the Titratable acidity in data set [1] is on record as 60.6 mL of 0.1N NaOH.
As to calcium glycerophosphate [CaGP], the “effectiveness as source of calcium in TPN solutions” value in [8] and in data set [9] was “as effective as calcium gluconate” in each case. In addition, the Titratable acidity in [1] is recorded as 43.5 mL of 0.1N NaOH.
